Earlier results in US6458790B2, “Substituted piperidines as melanocortin receptor agonists” (Merck & Co., Inc., priority 2000, dated 2002).

Legend:
[1] = system: males with psychogenic erectile dysfunction
[2] = system: men with erectile dysfunction; settings: for duration of effect / onset of action: after an oral dose; for share of men/patients in whom effective (adequate response): oral
[3] = subcutaneous injection formulation

| Molecule | absorption into the systemic circulation ([1]; human, in vivo, po) | response rate ([1]; injected intramuscularly or subcutaneously) [%] | duration of action [1, 3] | time to onset of erection [1, 3] [min] | duration of effect [2] | onset of action [2] [min] | share of men/patients in whom effective (adequate response) [2] |
| --- | --- | --- | --- | --- | --- | --- | --- |
| Ac-Nle-c[Asp-His-DPhe-Arg-Trp-Lys]-NH2 [MT-II] | not absorbed into the systemic circulation | 75 | approximately 2.5 hours | 10 to 20 |  |  |  |
| CCCc1nn(C)c2c(=O)[nH]c(-c3cc(S(=O)(=O)N4CCN(C)CC4)ccc3OCC)nc12 [Sildenafil] |  |  |  |  | about 4 hours | 30 to 60 | about 70% |
| Cc1ccc(N(CC2=NCCN2)c2cccc(O)c2)cc1 [phentolamine] |  |  |  |  | 2 h | 5 to 30 | 35-40% |
